# From US20240277713A1 (Kadmon Corporation, LLC, priority 2022, published 2024)
# Tests used:
# rat bone marrow = experiment: in vivo rat bone marrow micronucleus assay
# [1] = Toxicokinetics in pregnant New Zealand White rabbits (Example 2); assay type: in vivo, rabbit; settings: female, New Zealand White, rabbit, in vivo, po; for AUC(0-t): read-out: maternal AUC0-24; for Cmax: read-out: maternal Cmax
# Method: The study was conducted in two phases: Phase A was a dose range finding tolerance study with non-pregnant rabbits, and Phase B was the pilot developmental toxicity study.
# All fetuses were given the appropriate external examination.
# [2] = tested on: CYP3A4, CYP2C8, CYP2D6, and UGT1A9; experiment: Metabolism in vitro; assay type: in vitro ADME
# [3] = molecular target: CYP3A4, CYP2C8, CYP2D6, and UGT1A9 (Homo sapiens, UniProt P08684); experiment: Metabolism in vitro; assay type: in vitro ADME
# P-gp = P-gp (Homo sapiens, UniProt P08183); experiment: Transporter systems in vitro: P-gp; assay type: in vitro ADME
# [4] = Toxicokinetic analysis in rat plasma (Example 5); assay type: in vivo; settings: for Cmax / AUC(0-t): rat, plasma; for AUC(0-t): read-out: AUC0-24
# Method: TK animals were dosed for 70 and 14 days for the males and females, respectively. Dosing of TK males and females was initiated simultaneously, continuing to euthanasia. Refrigerated daily aliquots of dosing formulations were brought to room temperature while continuously stirring for at least 30 minutes prior to dosing.
# UGT1A1 = molecular target: T1, UGT1A1 (Homo sapiens, UniProt P22309); experiment: Enzyme systems in vitro: UGT1A1; assay type: in vitro ADME
# T1 sequence (P22309 26-533): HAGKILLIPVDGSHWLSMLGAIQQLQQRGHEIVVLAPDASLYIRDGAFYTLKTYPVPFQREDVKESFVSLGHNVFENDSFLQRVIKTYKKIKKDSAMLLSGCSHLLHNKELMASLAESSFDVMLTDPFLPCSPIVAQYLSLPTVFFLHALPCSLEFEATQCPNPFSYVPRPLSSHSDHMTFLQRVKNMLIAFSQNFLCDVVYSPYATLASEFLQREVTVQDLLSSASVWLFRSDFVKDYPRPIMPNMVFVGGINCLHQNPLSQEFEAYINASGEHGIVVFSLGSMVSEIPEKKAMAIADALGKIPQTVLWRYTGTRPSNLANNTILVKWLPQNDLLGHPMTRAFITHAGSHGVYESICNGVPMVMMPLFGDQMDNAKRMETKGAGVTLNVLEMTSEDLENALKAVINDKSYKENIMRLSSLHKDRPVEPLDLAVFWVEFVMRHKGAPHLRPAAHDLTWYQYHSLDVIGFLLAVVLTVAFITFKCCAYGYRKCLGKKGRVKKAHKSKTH
# [5] = Clinical drug interaction studies, effects of other drugs on belumosudil; assay type: in vivo, human; settings: healthy subjects
# [6] = Group 14 (50 mg base/kg/day), Day 1
# [7] = coadministration of rabeprazole
# Chain of P-gp (P08183 whole entry): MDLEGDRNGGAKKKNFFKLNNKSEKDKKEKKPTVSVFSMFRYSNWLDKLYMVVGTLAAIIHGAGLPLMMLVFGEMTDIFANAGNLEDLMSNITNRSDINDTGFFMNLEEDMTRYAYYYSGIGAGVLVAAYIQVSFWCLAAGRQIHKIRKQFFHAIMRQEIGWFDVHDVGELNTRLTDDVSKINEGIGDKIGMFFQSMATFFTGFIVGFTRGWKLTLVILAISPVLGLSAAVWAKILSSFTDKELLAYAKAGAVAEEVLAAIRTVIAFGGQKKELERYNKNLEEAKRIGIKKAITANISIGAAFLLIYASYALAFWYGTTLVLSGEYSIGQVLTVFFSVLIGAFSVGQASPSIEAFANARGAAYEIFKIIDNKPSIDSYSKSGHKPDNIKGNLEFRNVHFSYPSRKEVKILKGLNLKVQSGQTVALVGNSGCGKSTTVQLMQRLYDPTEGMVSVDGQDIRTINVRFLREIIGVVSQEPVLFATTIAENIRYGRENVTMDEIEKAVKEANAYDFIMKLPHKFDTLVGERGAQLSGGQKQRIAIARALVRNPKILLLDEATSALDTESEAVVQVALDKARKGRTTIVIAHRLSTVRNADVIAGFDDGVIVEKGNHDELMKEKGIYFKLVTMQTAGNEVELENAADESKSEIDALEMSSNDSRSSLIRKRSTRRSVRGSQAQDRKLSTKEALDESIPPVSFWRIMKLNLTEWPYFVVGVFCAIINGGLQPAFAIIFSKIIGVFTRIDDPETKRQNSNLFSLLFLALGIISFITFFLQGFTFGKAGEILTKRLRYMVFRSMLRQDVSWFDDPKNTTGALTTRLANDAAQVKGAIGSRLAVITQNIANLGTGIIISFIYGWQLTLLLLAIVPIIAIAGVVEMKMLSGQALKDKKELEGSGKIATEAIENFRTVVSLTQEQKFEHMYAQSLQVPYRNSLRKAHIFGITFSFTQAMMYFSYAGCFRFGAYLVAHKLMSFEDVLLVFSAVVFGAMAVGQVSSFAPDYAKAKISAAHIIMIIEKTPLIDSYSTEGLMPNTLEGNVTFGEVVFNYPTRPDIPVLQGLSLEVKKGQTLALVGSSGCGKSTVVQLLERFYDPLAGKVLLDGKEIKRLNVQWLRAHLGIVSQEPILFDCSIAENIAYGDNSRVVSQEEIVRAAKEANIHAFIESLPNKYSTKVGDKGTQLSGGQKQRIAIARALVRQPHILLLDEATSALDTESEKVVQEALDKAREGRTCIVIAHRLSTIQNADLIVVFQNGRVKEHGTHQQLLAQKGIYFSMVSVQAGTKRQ
# Chain of CYP3A4, CYP2C8, CYP2D6, and UGT1A9 (Homo sapiens, UniProt P08684) (P08684 2-503): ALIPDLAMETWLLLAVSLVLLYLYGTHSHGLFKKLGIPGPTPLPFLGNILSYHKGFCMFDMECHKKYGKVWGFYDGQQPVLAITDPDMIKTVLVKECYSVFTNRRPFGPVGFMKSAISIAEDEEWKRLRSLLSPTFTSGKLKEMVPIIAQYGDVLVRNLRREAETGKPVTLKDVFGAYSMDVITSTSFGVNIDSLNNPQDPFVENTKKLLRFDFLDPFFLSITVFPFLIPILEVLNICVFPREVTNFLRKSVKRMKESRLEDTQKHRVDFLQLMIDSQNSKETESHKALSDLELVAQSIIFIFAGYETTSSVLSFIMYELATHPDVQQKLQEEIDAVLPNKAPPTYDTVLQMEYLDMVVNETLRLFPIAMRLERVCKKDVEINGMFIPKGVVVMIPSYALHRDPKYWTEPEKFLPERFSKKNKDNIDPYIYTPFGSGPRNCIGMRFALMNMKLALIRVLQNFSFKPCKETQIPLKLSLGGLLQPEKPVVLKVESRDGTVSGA
smiles,measurement,setting,value
"CC(C)NC(=O)COc1cccc(-c2nc(Nc3ccc4[nH]ncc4c3)c3ccccc3n2)c1 [belumosudil, 2-{3-[4-(1H-indazol-5-ylamino)-2-quinazolinyl]phenoxy}-N-(propan-2-yl) acetamide]","genotoxicity, bone marrow micronucleus assay",rat bone marrow,not genotoxic
same,AUC(0-t),[1]; 50 mg/kg/day,2480 ng·h/mL
same,Cmax,[1]; 50 mg/kg/day,621 ng/mL
same,AUC(0-t),[1]; 250 mg/kg/day,15600 ng·h/mL
same,Cmax,[1]; 250 mg/kg/day,2100 ng/mL
same,minor metabolizing enzymes,[2],"to a lesser extent by CYP2C8, CYP2D6, and UGT1A9"
same,primary metabolizing enzyme,[3],primarily metabolized by CYP3A4
same,P-gp substrate status,P-gp,substrate of P-gp
same,P-gp inhibition,P-gp; clinically relevant concentrations,inhibits
same,AUC0-24 in rat plasma,"[4]; Day 1, belumosudil 50 mg base/kg, F",49200 ng·h/mL
same,AUC0-24 in rat plasma,"[4]; Day 1, belumosudil 50 mg base/kg, M",20100 ng·h/mL
same,AUC0-24 in rat plasma,"[4]; Day 1, belumosudil 150 mg base/kg, F",95700 ng·h/mL
same,AUC0-24 in rat plasma,"[4]; Day 1, belumosudil 150 mg base/kg, M",81600 ng·h/mL
same,AUC0-24 in rat plasma,"[4]; Day 1, belumosudil 275 mg base/kg, F",122000 ng·h/mL
same,AUC0-24 in rat plasma,"[4]; Day 1, belumosudil 275 mg base/kg, M",96400 ng·h/mL
same,AUC0-24 in rat plasma,"[4]; Day 14, belumosudil 50 mg base/kg, F",26200 ng·h/mL
same,AUC0-24 in rat plasma,"[4]; Day 14, belumosudil 150 mg base/kg, F",99500 ng·h/mL
same,AUC0-24 in rat plasma,"[4]; Day 14, belumosudil 275 mg base/kg, F",209000 ng·h/mL
same,AUC0-24 in rat plasma,"[4]; Day 70, belumosudil 50 mg base/kg, M",21600 ng·h/mL
same,AUC0-24 in rat plasma,"[4]; Day 70, belumosudil 150 mg base/kg, M",70100 ng·h/mL
same,AUC0-24 in rat plasma,"[4]; Day 70, belumosudil 275 mg base/kg, M",191000 ng·h/mL
same,"sex difference in AUC0-24, females higher than males",[4]; [6],~2.44 fold
same,"sex difference in Cmax, females higher than males",[4]; [6],approximately 2.10 fold
same,Cmax,"[4]; female, Sprague-Dawley, oral, 150 mg base/kg",9860 ng/mL
same,AUC(0-t),"[4]; female, Sprague-Dawley, oral, 150 mg base/kg/day, females",99500 ng·h/mL
same,Cmax,"[4]; female, Sprague-Dawley, po, 50 mg/kg/day",3200 ng/mL
same,AUC(0-t),"[4]; female, Sprague-Dawley, po, 50 mg/kg/day, 50 mg base/kg/day, females",26200 ng·h/mL
same,Cmax,"[4]; female, Sprague-Dawley, po, 275 mg/kg/day, Day 14, belumosudil 275 mg base/kg, F",14900 ng/mL
same,AUC(0-t),"[4]; female, Sprague-Dawley, po, 275 mg/kg/day, 275 mg base/kg/day, females",209000 ng·h/mL
same,Cmax,"[4]; female, po, 50 mg/kg/day",4540 ng/mL
same,Cmax,"[4]; female, po, 150 mg/kg/day",5670 ng/mL
same,Cmax,"[4]; female, po, 275 mg/kg/day, Day 1, belumosudil 275 mg base/kg, F",7050 ng/mL
same,Cmax,"[4]; male, Sprague-Dawley, po, 50 mg/kg/day",2480 ng/mL
same,AUC(0-t),"[4]; male, Sprague-Dawley, po, 50 mg/kg/day, 50 mg base/kg/day, males",21600 ng·h/mL
same,Cmax,"[4]; male, Sprague-Dawley, po, 150 mg/kg/day",10100 ng/mL
same,AUC(0-t),"[4]; male, Sprague-Dawley, po, 150 mg/kg/day, 150 mg base/kg/day, males",70100 ng·h/mL
same,Cmax,"[4]; male, po, 50 mg/kg/day",2170 ng/mL
same,Cmax,"[4]; male, po, 150 mg/kg/day",5370 ng/mL
same,Cmax,"[4]; male, po, 275 mg/kg/day, Day 1, belumosudil 275 mg base/kg, M",7200 ng/mL
same,Cmax,"[4]; male, po, 275 mg/kg/day, Day 70, belumosudil 275 mg base/kg, M",20400 ng/mL
same,UGT1A1 inhibition,UGT1A1,inhibitor
same,effect on belumosudil exposure,[5]; coadministered with itraconazole,no clinically meaningful effect
same,decrease in belumosudil AUC,[5]; coadministration of omeprazole,47%
same,decrease in belumosudil Cmax,[5]; coadministration of omeprazole,68%
same,decrease in belumosudil AUC,[5]; [7],80%
same,decrease in belumosudil Cmax,[5]; [7],87%
same,decrease in belumosudil AUC,[5]; coadministration of rifampin,72%
same,decrease in belumosudil Cmax,[5]; coadministration of rifampin,59%
